Legend:
[1] = mouse, in vivo, iv
Method: (§1) Adult male BALB/c mice were divided into 5 groups of 3 mice each for the pharmacokinetic study. The mice were anesthetized with an intraperitoneal injection of ketamine (100 mg/kg) and xylazine (2 mg/kg). The injection solution contained 5 μCi of [^125I]-HD-PNA with or without conjugation to 2 μg of 8D3-SA in 0.01 M PBS/pH 7.4, and a total volume of 50 μl was administered via the jugular vein of each mouse. Groups of 3 mice each were sacrificed at 0.25, 2, 5, 15, and 60 min after the isotope injection and arterial blood was sampled from the aorta. After spinning the blood samples, the collected supernatant (serum) was counted for [^125I]-radioactivity using a γ-counter (Beckman Instruments, Inc., Fullerton, Calif.). An aliquot of serum was precipitated with cold 10% TCA, and the fraction of total serum radioactivity that was TCA precipitated was determined. The brain and peripheral organs (liver, kidney, heart, lung, and spleen) were removed from each mouse at 60 min after the isotope administration and total [^125I]-radioactivity in the organ was measured.
Pharmacokinetic parameters were determined by fitting the serum TCA-precipitable radioactivity data to a biexponential equation with a weighting factor of [1/A(t)]^2 using a derivative-free nonlinear regression analysis (PARBMDP, Biomedical Computer P-Series, developed at UCLA Health Science Computing Facilities).
where A(t)=% injected dose (ID)/ml serum at a given time (t).

[2] = mouse, in vivo
Method: as §1
The organ permeability-surface area (PS) product of either the unconjugated [^125I]-HD-PNA, or the [^125I]-HD-PNA conjugated to 8D3/SA, was calculated as follows: [formula] […]
The brain delivery of the compound was expressed as percentage of injected dose (ID)/g brain, and was calculated as follows: […]

[3] = test system: human HD exon 1; test: Translation arrest (combined in vitro transcription/translation of HD exon 1); assay type: biochemical; settings: 5-50 μM antisense agent, [3H]-leucine incorporation
Method: The hybridization of the antisense HD-PNA to the HD transcript was determined using a combination of transcription and translation that mimics in vivo conditions as previously described (Boado et al. (2000) J. Pharmacol. Exp. Ther., 295: 239-243). The cDNA containing the human HD exon 1 was sublconed into the Bluescript KS+plasmid, between either T3 or T7 RNA polymerase promoters, and this plasmid is designated clone 839, as described previously (Id). Transcription/translation of human HD exon 1 clone 839 was performed with 0.2 μg clone 839 plasmid DNA in the presence of T3 RNA polymerase, 5 μCi [^3H]-leucine, and 50% v/v rabbit reticulocyte lysate using the T3-TNT translation system (Promega, Madison, Wis.), as described previously (Id). Dose response studies with newly synthesized PNAs were performed and compared with a positive control antisense phosphodiester-ODN, designated ODN-III, as described (Id). Samples were incubated for 30 min at 30 ° C., and incorporation of [^3H]-leucine into HD exon 1 protein was analyzed by trichloroacetic acid (TCA) precipitation, and data expressed as percent of control, which lacked any added PNA or ODN. The HD exon 1 insert is 10% of the total plasmid, or about […] per 12.5 μL reaction. Since the TNT produces 10-30 RNA copies per plasmid, the final concentration of the HD RNA in the TNT reaction is approximately 1 μM. […]

[4] = test system: HD mRNA; test: HD RNase protection assay; assay type: binding, human; settings: RNase T1/A digestion, PAGE autoradiography
Method: The sense RNA was synthesized with T3 RNA polymerase following linearization of the plasmid with EcoRI. The transcribed RNA was radiolabeled with [^32Pα]ATP to a specific activity of 0.22 μCi/pmol, as previously described (Boado and Pardridge (1994) Bioconj. Chem., 6: 406-410). For the RNAse protection assay, 0.6 pmol of biotinylated HD-PNA or biotinylated luciferase-PNA, with or without conjugation to 6.4 pmol of MAb-SA, was added to 10^5 CPM of [^32P]-labeled sense HD RNA (0.2 pmol) in 3 μl buffer (80 mM NaCl, 7 mM phosphate buffer, pH=7.5, 0.1% BSA), and annealed for 30 minutes at 42° C. Then 20 units RNAse Ti and 2.5 μg RNAse A were added to the samples in 17 μl of RNAse digestion buffer (0.3 M NaCl, 10 mM TRIS pH=7.5, 4 mM EDTA, 0.02% tRNA, 0.02% BSA) and incubated for 30 min at 37° C. RNA fragments were analyzed by 7 M urea/20% polyacrylamide gel electrophoresis following by autoradiography as described by Pardridge et al. (1995) Proc. Natl. Acad. Sci., USA, 92:5592-5596. Labeled RNA and PNAs were heat denatured for 2 minutes at 95° C. and then incubated on ice for 2 minutes immediately before the experiment or conjugation to MAb-SA.

[^125I]-PNA: biotinylated 16-mer PNA complementary to nucleotides −1 to +15 of human HD exon 1, Tyr-Lys, amidated carboxyl terminus; radioiodinated (CTTCCATTTTACCAAC; all peptide nucleic acid (PNA); biotinylated, Tyr-Lys added, amidated C-terminus, radioiodinated, positions not given here)
A1 [1]: 32 ± 2 % ID/ml
A2 [1]: 6.3 ± 0.7 % ID/ml
AUC (60 min) [1]: 308 ± 36 % ID · min/ml
AUC (∞) [1]: 399 ± 49 % ID · min/ml
K1 [1]: 0.37 ± 0.04 min⁻¹
K2 [1]: 0.0206 ± 0.0014 min⁻¹
VSS [1]: 0.374 ± 0.042 L/kg
t½^1 [1]: 1.9 ± 0.2 min
t½^2 [1]: 34 ± 3 min
BBB PS product [2]: < 0.3 µL/min/g
inhibition of cell free translation of HD exon 1 protein [3]: inhibits the cell free translation
hybridization to HD mRNA (RNase protected fragment) [4]: specifically hybridizes to the target mRNA
